# Data: PMC10492782, “Exploiting the aggregation propensity of beta-lactamases to design inhibitors that induce enzyme misfolding” (Nature Communications, 2023)
# System: E. coli TEM-30
# Test: not given
# Assay type: cell-based, Escherichia coli
# Conditions: E. coli TEM-30
# Experimental: (§1) Beta-lactamase clinical samples were collected from University Hospitals Leuven and tested for ESBL production using the disk diffusion method. The beta-lactamase reference isolates were purchased from International Health Management Associates (IHMA). Bacterial strains were cultivated in Mueller–Hinton Broth (MHB, Difco) at 37 °C. Whenever required, growth media were supplemented with appropriate antibiotics to the medium or plates (kanamycin 30 µg/mL, L-arabinose 0.5 mg/mL, and IPTG […]). Escherichia coli BL21 (ThermoFisher Scientific, Belgium) was used for cloning and plasmid amplification. For the selection of antibiotic resistant colonies, E. coli carrying plasmids was grown in LB agar plates supplemented with the relevant antibiotic. Bacterial CFU counting was done on blood agar plates (BD Biosciences, Belgium) or MHA agar plates. Species identification and antibiograms for all clinical isolates were performed using MALDI-Tof and VITEK® 2 automated system (BioMérieux, France).
# (§2) Khodaparast et al Supplementary data
# (§3) study. […] Abbreviations: S,
# (§4) susceptible; I, intermediate; R, resistant.
row,Structure (SMILES),Interoretation
1,CO/N=C(\C(=O)N[C@@H]1C(=O)N2C(C(=O)O)=C(COC(N)=O)CS[C@H]12)c1ccco1 [Cefuroxime],R
2,CC(C)(O/N=C(\C(=O)N[C@@H]1C(=O)N2C(C(=O)[O-])=C(C[n+]3ccccc3)CS[C@H]12)c1csc(N)n1)C(=O)O [Ceftazidime],*I
3,CN(C)c1cc(NC(=O)CNC(C)(C)C)c(O)c2c1C[C@H]1C[C@H]3[C@H](N(C)C)C(O)=C(C(N)=O)C(=O)[C@@]3(O)C(O)=C1C2=O [Tigecycline],I

# Same assay, conditions: VITEK 2 AST card
row,Structure (SMILES),Interpretation
1,CO/N=C(\C(=O)N[C@@H]1C(=O)N2C(C(=O)O)=C(COC(N)=O)CS[C@H]12)c1ccco1 [Cefuroxime],R
2,CC(C)(O/N=C(\C(=O)N[C@@H]1C(=O)N2C(C(=O)[O-])=C(C[n+]3ccccc3)CS[C@H]12)c1csc(N)n1)C(=O)O [Ceftazidime],*I
3,CN(C)c1cc(NC(=O)CNC(C)(C)C)c(O)c2c1C[C@H]1C[C@H]3[C@H](N(C)C)C(O)=C(C(N)=O)C(=O)[C@@]3(O)C(O)=C1C2=O [Tigecycline],I

# System: E. coli NDM5a
# Test: VITEK 2 AST antimicrobial susceptibility testing
# Assay type: cell-based, Escherichia coli
# Conditions: E. coli NDM5a
# Experimental: as §1, §2, §3, §4
row,Structure (SMILES),Interoretation
1,CO/N=C(\C(=O)N[C@@H]1C(=O)N2C(C(=O)O)=C(COC(N)=O)CS[C@H]12)c1ccco1 [Cefuroxime],R
2,CC(C)(O/N=C(\C(=O)N[C@@H]1C(=O)N2C(C(=O)[O-])=C(C[n+]3ccccc3)CS[C@H]12)c1csc(N)n1)C(=O)O [Ceftazidime],R
3,CN(C)c1cc(NC(=O)CNC(C)(C)C)c(O)c2c1C[C@H]1C[C@H]3[C@H](N(C)C)C(O)=C(C(N)=O)C(=O)[C@@]3(O)C(O)=C1C2=O [Tigecycline],S

# Same assay, conditions: VITEK 2 AST card
row,Structure (SMILES),Interpretation
1,CO/N=C(\C(=O)N[C@@H]1C(=O)N2C(C(=O)O)=C(COC(N)=O)CS[C@H]12)c1ccco1 [Cefuroxime],R
2,CC(C)(O/N=C(\C(=O)N[C@@H]1C(=O)N2C(C(=O)[O-])=C(C[n+]3ccccc3)CS[C@H]12)c1csc(N)n1)C(=O)O [Ceftazidime],R
3,CN(C)c1cc(NC(=O)CNC(C)(C)C)c(O)c2c1C[C@H]1C[C@H]3[C@H](N(C)C)C(O)=C(C(N)=O)C(=O)[C@@]3(O)C(O)=C1C2=O [Tigecycline],S

# System: E. coli NDM5b
# Test: VITEK 2 AST antimicrobial susceptibility testing
# Assay type: cell-based, Escherichia coli
# Conditions: E. coli NDM5b
# Experimental: as §1, §2, §3, §4
row,Structure (SMILES),Interoretation
1,CO/N=C(\C(=O)N[C@@H]1C(=O)N2C(C(=O)O)=C(COC(N)=O)CS[C@H]12)c1ccco1 [Cefuroxime],R
2,CC(C)(O/N=C(\C(=O)N[C@@H]1C(=O)N2C(C(=O)[O-])=C(C[n+]3ccccc3)CS[C@H]12)c1csc(N)n1)C(=O)O [Ceftazidime],R
3,CN(C)c1cc(NC(=O)CNC(C)(C)C)c(O)c2c1C[C@H]1C[C@H]3[C@H](N(C)C)C(O)=C(C(N)=O)C(=O)[C@@]3(O)C(O)=C1C2=O [Tigecycline],S

# Same assay, conditions: VITEK 2 AST card
row,Structure (SMILES),Interpretation
1,CO/N=C(\C(=O)N[C@@H]1C(=O)N2C(C(=O)O)=C(COC(N)=O)CS[C@H]12)c1ccco1 [Cefuroxime],R
2,CC(C)(O/N=C(\C(=O)N[C@@H]1C(=O)N2C(C(=O)[O-])=C(C[n+]3ccccc3)CS[C@H]12)c1csc(N)n1)C(=O)O [Ceftazidime],R
3,CN(C)c1cc(NC(=O)CNC(C)(C)C)c(O)c2c1C[C@H]1C[C@H]3[C@H](N(C)C)C(O)=C(C(N)=O)C(=O)[C@@]3(O)C(O)=C1C2=O [Tigecycline],S

# System: E. coli SHV1 (APHA)
# Test: VITEK 2 AST antimicrobial susceptibility testing
# Assay type: cell-based, Escherichia coli
# Conditions: E. coli SHV154
# Experimental: as §1, §2, §3, §4
row,Structure (SMILES),Interoretation
1,CO/N=C(\C(=O)N[C@@H]1C(=O)N2C(C(=O)O)=C(COC(N)=O)CS[C@H]12)c1ccco1 [Cefuroxime],R
2,CC(C)(O/N=C(\C(=O)N[C@@H]1C(=O)N2C(C(=O)[O-])=C(C[n+]3ccccc3)CS[C@H]12)c1csc(N)n1)C(=O)O [Ceftazidime],R
3,CN(C)c1cc(NC(=O)CNC(C)(C)C)c(O)c2c1C[C@H]1C[C@H]3[C@H](N(C)C)C(O)=C(C(N)=O)C(=O)[C@@]3(O)C(O)=C1C2=O [Tigecycline],S

# Same assay, conditions: VITEK 2 AST card
row,Structure (SMILES),Interpretation
1,CO/N=C(\C(=O)N[C@@H]1C(=O)N2C(C(=O)O)=C(COC(N)=O)CS[C@H]12)c1ccco1 [Cefuroxime],R
2,CC(C)(O/N=C(\C(=O)N[C@@H]1C(=O)N2C(C(=O)[O-])=C(C[n+]3ccccc3)CS[C@H]12)c1csc(N)n1)C(=O)O [Ceftazidime],R
3,CN(C)c1cc(NC(=O)CNC(C)(C)C)c(O)c2c1C[C@H]1C[C@H]3[C@H](N(C)C)C(O)=C(C(N)=O)C(=O)[C@@]3(O)C(O)=C1C2=O [Tigecycline],S

# System: E. coli TEM-104
# Test: VITEK 2 AST antimicrobial susceptibility testing
# Assay type: cell-based, Escherichia coli
# Conditions: E. coli TEM-104
# Experimental: as §1, §2, §3, §4
row,Structure (SMILES),Interoretation
1,CO/N=C(\C(=O)N[C@@H]1C(=O)N2C(C(=O)O)=C(COC(N)=O)CS[C@H]12)c1ccco1 [Cefuroxime],S
2,CC(C)(O/N=C(\C(=O)N[C@@H]1C(=O)N2C(C(=O)[O-])=C(C[n+]3ccccc3)CS[C@H]12)c1csc(N)n1)C(=O)O [Ceftazidime],S
3,CN(C)c1cc(NC(=O)CNC(C)(C)C)c(O)c2c1C[C@H]1C[C@H]3[C@H](N(C)C)C(O)=C(C(N)=O)C(=O)[C@@]3(O)C(O)=C1C2=O [Tigecycline],S

# Same assay, conditions: VITEK 2 AST card
row,Structure (SMILES),Interpretation
1,CO/N=C(\C(=O)N[C@@H]1C(=O)N2C(C(=O)O)=C(COC(N)=O)CS[C@H]12)c1ccco1 [Cefuroxime],S
2,CC(C)(O/N=C(\C(=O)N[C@@H]1C(=O)N2C(C(=O)[O-])=C(C[n+]3ccccc3)CS[C@H]12)c1csc(N)n1)C(=O)O [Ceftazidime],S
3,CN(C)c1cc(NC(=O)CNC(C)(C)C)c(O)c2c1C[C@H]1C[C@H]3[C@H](N(C)C)C(O)=C(C(N)=O)C(=O)[C@@]3(O)C(O)=C1C2=O [Tigecycline],S

# System: E. coli TEM-148
# Test: VITEK 2 AST antimicrobial susceptibility testing
# Assay type: cell-based, Escherichia coli
# Conditions: E. coli TEM-148
# Experimental: as §1, §2, §3, §4
row,Structure (SMILES),Interoretation
1,CO/N=C(\C(=O)N[C@@H]1C(=O)N2C(C(=O)O)=C(COC(N)=O)CS[C@H]12)c1ccco1 [Cefuroxime],R
2,CC(C)(O/N=C(\C(=O)N[C@@H]1C(=O)N2C(C(=O)[O-])=C(C[n+]3ccccc3)CS[C@H]12)c1csc(N)n1)C(=O)O [Ceftazidime],*I
3,CN(C)c1cc(NC(=O)CNC(C)(C)C)c(O)c2c1C[C@H]1C[C@H]3[C@H](N(C)C)C(O)=C(C(N)=O)C(=O)[C@@]3(O)C(O)=C1C2=O [Tigecycline],S

# Same assay, conditions: VITEK 2 AST card
row,Structure (SMILES),Interpretation
1,CO/N=C(\C(=O)N[C@@H]1C(=O)N2C(C(=O)O)=C(COC(N)=O)CS[C@H]12)c1ccco1 [Cefuroxime],R
2,CC(C)(O/N=C(\C(=O)N[C@@H]1C(=O)N2C(C(=O)[O-])=C(C[n+]3ccccc3)CS[C@H]12)c1csc(N)n1)C(=O)O [Ceftazidime],*I
3,CN(C)c1cc(NC(=O)CNC(C)(C)C)c(O)c2c1C[C@H]1C[C@H]3[C@H](N(C)C)C(O)=C(C(N)=O)C(=O)[C@@]3(O)C(O)=C1C2=O [Tigecycline],S

# System: E. coli TEM-16
# Test: VITEK 2 AST antimicrobial susceptibility testing
# Assay type: cell-based, Escherichia coli
# Conditions: E. coli TEM-16
# Experimental: as §1, §2, §3, §4
row,Structure (SMILES),Interoretation
1,CO/N=C(\C(=O)N[C@@H]1C(=O)N2C(C(=O)O)=C(COC(N)=O)CS[C@H]12)c1ccco1 [Cefuroxime],R
2,CC(C)(O/N=C(\C(=O)N[C@@H]1C(=O)N2C(C(=O)[O-])=C(C[n+]3ccccc3)CS[C@H]12)c1csc(N)n1)C(=O)O [Ceftazidime],R
3,CN(C)c1cc(NC(=O)CNC(C)(C)C)c(O)c2c1C[C@H]1C[C@H]3[C@H](N(C)C)C(O)=C(C(N)=O)C(=O)[C@@]3(O)C(O)=C1C2=O [Tigecycline],S

# Same assay, conditions: VITEK 2 AST card
row,Structure (SMILES),Interpretation
1,CO/N=C(\C(=O)N[C@@H]1C(=O)N2C(C(=O)O)=C(COC(N)=O)CS[C@H]12)c1ccco1 [Cefuroxime],R
2,CC(C)(O/N=C(\C(=O)N[C@@H]1C(=O)N2C(C(=O)[O-])=C(C[n+]3ccccc3)CS[C@H]12)c1csc(N)n1)C(=O)O [Ceftazidime],R
3,CN(C)c1cc(NC(=O)CNC(C)(C)C)c(O)c2c1C[C@H]1C[C@H]3[C@H](N(C)C)C(O)=C(C(N)=O)C(=O)[C@@]3(O)C(O)=C1C2=O [Tigecycline],S

# System: E. coli TEM-206
# Test: VITEK 2 AST antimicrobial susceptibility testing
# Assay type: cell-based, Escherichia coli
# Conditions: E. coli TEM-206
# Experimental: as §1, §2, §3, §4
row,Structure (SMILES),Interoretation
1,CO/N=C(\C(=O)N[C@@H]1C(=O)N2C(C(=O)O)=C(COC(N)=O)CS[C@H]12)c1ccco1 [Cefuroxime],R
2,CC(C)(O/N=C(\C(=O)N[C@@H]1C(=O)N2C(C(=O)[O-])=C(C[n+]3ccccc3)CS[C@H]12)c1csc(N)n1)C(=O)O [Ceftazidime],R
3,CN(C)c1cc(NC(=O)CNC(C)(C)C)c(O)c2c1C[C@H]1C[C@H]3[C@H](N(C)C)C(O)=C(C(N)=O)C(=O)[C@@]3(O)C(O)=C1C2=O [Tigecycline],S

# Same assay, conditions: VITEK 2 AST card
row,Structure (SMILES),Interpretation
1,CO/N=C(\C(=O)N[C@@H]1C(=O)N2C(C(=O)O)=C(COC(N)=O)CS[C@H]12)c1ccco1 [Cefuroxime],R
2,CC(C)(O/N=C(\C(=O)N[C@@H]1C(=O)N2C(C(=O)[O-])=C(C[n+]3ccccc3)CS[C@H]12)c1csc(N)n1)C(=O)O [Ceftazidime],R
3,CN(C)c1cc(NC(=O)CNC(C)(C)C)c(O)c2c1C[C@H]1C[C@H]3[C@H](N(C)C)C(O)=C(C(N)=O)C(=O)[C@@]3(O)C(O)=C1C2=O [Tigecycline],S
